Test results published in PubChem BioAssay (NCI).
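Growth conditions: 96-well plates. Treatment: test compound, 48 hours, 5 concentrations. Analysis: linear interpolation between bracketing concentrations; unreached endpoints set to highest concentration. The concentration for full growth arrest is given as TGI.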

Assays:
Assay in all cases: DTP human tumour cell line panel, 48 h
[1] = test system: 786-0 renal
[2] = test system: A549 NSCLC
[3] = test system: ACHN renal
[4] = test system: BT-549 breast
[5] = test system: CAKI-1 renal
[6] = test system: CCRF-CEM leukemia
[7] = test system: COLO 205 colon
[8] = test system: DU-145 prostate
[9] = test system: EKVX NSCLC
[10] = test system: HCC-2998 colon
[11] = test system: HCT-116 colon
[12] = test system: HCT-15 colon
[13] = test system: HL-60(TB) leukemia
[14] = test system: HOP-62 NSCLC
[15] = test system: HS 578T breast
[16] = test system: HT29 colon
[17] = test system: K-562 leukemia
[18] = test system: KM12 colon
[19] = test system: LOX IMVI melanoma
[20] = test system: M14 melanoma
[21] = test system: MALME-3M melanoma
[22] = test system: MCF7 breast
[23] = test system: MDA-MB-435
[24] = test system: MDA-N
[25] = test system: MOLT-4 leukemia
[26] = test system: NCI-H226 lung
[27] = test system: NCI-H23 lung
[28] = test system: NCI-H522 lung
[29] = test system: NCI/ADR-RES ovarian
[30] = test system: OVCAR-3 ovarian
[31] = test system: OVCAR-4 ovarian
[32] = test system: OVCAR-5 ovarian
[33] = test system: OVCAR-8 ovarian
[34] = test system: PC-3 prostate
[35] = test system: RXF 393 renal
[36] = test system: SF-268 CNS
[37] = test system: SF-295 CNS
[38] = test system: SF-539 CNS
[39] = test system: SK-MEL-2 melanoma
[40] = test system: SK-MEL-28 melanoma
[41] = test system: SK-MEL-5 melanoma
[42] = test system: SK-OV-3 ovarian
[43] = test system: SN12C renal
[44] = test system: SNB-19 CNS
[45] = test system: SNB-75 CNS
[46] = test system: SR leukemia
[47] = test system: SW-620 colon
[48] = test system: T-47D breast
[49] = test system: TK-10 renal
[50] = test system: U251 CNS
[51] = test system: UACC-257 melanoma
[52] = test system: UACC-62 melanoma
[53] = test system: UO-31 renal
[54] = test system: A498 renal
[55] = test system: IGROV1 ovarian
[56] = test system: MDA-MB-231 breast
[57] = test system: NCI-H460 lung
[58] = test system: HOP-92 NSCLC
[59] = test system: RPMI-8226 leukemia

CC(C)CN1CN(c2ccccc2)C2(CCN(CC(C)(c3ccc(F)cc3)C3OCCO3)CC2)C1=O (stereo not given)
TGI [1]: 12.1 µM | TGI [2]: 19.7 µM | TGI [3]: 15 µM | TGI [4]: 20.9 µM | TGI [5]: 24.4 µM | TGI [6]: 18.1 µM | TGI [7]: 3.71 µM | TGI [8]: 14.8 µM | TGI [9]: 19.8 µM | TGI [10]: 8.52 µM | TGI [11]: 13.9 µM | TGI [12]: 16.6 µM | TGI [13]: 12.8 µM | TGI [14]: 13.8 µM | TGI [15]: 16.8 µM | TGI [16]: 5.94 µM | TGI [17]: 18 µM | TGI [18]: 15.6 µM | TGI [19]: 5.31 µM | TGI [20]: 8.46 µM | TGI [21]: 17.2 µM | TGI [22]: 13.8 µM | TGI [23]: 23.5 µM | TGI [24]: 19.6 µM | TGI [25]: 7.32 µM | TGI [26]: 29.1 µM | TGI [27]: 8.69 µM | TGI [28]: 12.7 µM | TGI [29]: 37.4 µM | TGI [30]: 22.4 µM | TGI [31]: 29.7 µM | TGI [32]: 25.7 µM | TGI [33]: 29.3 µM | TGI [34]: 14.3 µM | TGI [35]: 21.9 µM | TGI [36]: 30.1 µM | TGI [37]: 10.9 µM | TGI [38]: 18.2 µM | TGI [39]: 11.5 µM | TGI [40]: 10 µM | TGI [41]: 4.95 µM | TGI [42]: 14.3 µM | TGI [43]: 19.1 µM | TGI [44]: 21.9 µM | TGI [45]: 20 µM | TGI [46]: 12.8 µM | TGI [47]: 17.5 µM | TGI [48]: 15.3 µM | TGI [49]: 23.4 µM | TGI [50]: 17.2 µM | TGI [51]: 10.8 µM | TGI [52]: 26.3 µM | TGI [53]: 9.77 µM

CC(C)C1CN1CC(O)Cn1ccnc1[N+](=O)[O-] (stereo not given)
TGI [1]: > 100 µM | TGI [54]: > 100 µM | TGI [2]: > 100 µM | TGI [3]: > 100 µM | TGI [4]: > 100 µM | TGI [5]: > 100 µM | TGI [6]: > 100 µM | TGI [7]: > 100 µM | TGI [8]: > 100 µM | TGI [9]: > 100 µM | TGI [10]: > 100 µM | TGI [11]: > 100 µM | TGI [12]: > 100 µM | TGI [14]: > 100 µM | TGI [15]: > 100 µM | TGI [16]: > 100 µM | TGI [55]: > 100 µM | TGI [17]: > 100 µM | TGI [18]: > 100 µM | TGI [20]: > 100 µM | TGI [21]: > 100 µM | TGI [22]: > 100 µM | TGI [56]: > 100 µM | TGI [24]: > 100 µM | TGI [25]: > 100 µM | TGI [26]: > 100 µM | TGI [27]: > 100 µM | TGI [57]: > 100 µM | TGI [28]: > 100 µM | TGI [29]: > 100 µM | TGI [30]: > 100 µM | TGI [31]: > 100 µM | TGI [32]: > 100 µM | TGI [33]: > 100 µM | TGI [34]: > 100 µM | TGI [36]: > 100 µM | TGI [37]: > 100 µM | TGI [38]: > 100 µM | TGI [39]: > 100 µM | TGI [40]: > 100 µM | TGI [41]: > 100 µM | TGI [42]: > 100 µM | TGI [43]: > 100 µM | TGI [44]: > 100 µM | TGI [45]: > 100 µM | TGI [47]: > 100 µM | TGI [48]: > 100 µM | TGI [49]: > 100 µM | TGI [50]: > 100 µM | TGI [51]: > 100 µM | TGI [52]: > 100 µM | TGI [53]: > 100 µM

CC1OCC2OC(C)OC(C3C4=C(CC(C)(C)CC4=O)OC4=C3C(=O)CC(C)(C)C4)C2O1 (stereo not given)
TGI [1]: > 100 µM | TGI [54]: > 100 µM | TGI [2]: > 100 µM | TGI [3]: > 100 µM | TGI [5]: > 100 µM | TGI [6]: > 100 µM | TGI [7]: > 100 µM | TGI [8]: > 100 µM | TGI [9]: > 100 µM | TGI [10]: > 100 µM | TGI [11]: > 100 µM | TGI [12]: > 100 µM | TGI [13]: > 100 µM | TGI [14]: > 100 µM | TGI [58]: > 100 µM | TGI [15]: > 100 µM | TGI [16]: > 100 µM | TGI [17]: > 100 µM | TGI [18]: > 100 µM | TGI [19]: > 100 µM | TGI [20]: > 100 µM | TGI [21]: > 100 µM | TGI [22]: > 100 µM | TGI [56]: > 100 µM | TGI [23]: > 100 µM | TGI [24]: > 100 µM | TGI [25]: > 100 µM | TGI [26]: > 100 µM | TGI [27]: > 100 µM | TGI [57]: > 100 µM | TGI [28]: > 100 µM | TGI [29]: > 100 µM | TGI [30]: > 100 µM | TGI [32]: > 100 µM | TGI [33]: > 100 µM | TGI [34]: > 100 µM | TGI [59]: > 100 µM | TGI [35]: > 100 µM | TGI [36]: > 100 µM | TGI [37]: > 100 µM | TGI [38]: > 100 µM | TGI [39]: > 100 µM | TGI [40]: > 100 µM | TGI [41]: > 100 µM | TGI [42]: > 100 µM | TGI [43]: > 100 µM | TGI [44]: > 100 µM | TGI [45]: > 100 µM | TGI [46]: > 100 µM | TGI [47]: > 100 µM | TGI [48]: > 100 µM | TGI [49]: > 100 µM | TGI [51]: > 100 µM | TGI [52]: > 100 µM | TGI [53]: > 100 µM
